Measurements: US20240041042A1, “1-(PYRIDYL)-5-AZINYLPYRAZOLE DERIVATIVES, AND THEIR USE FOR CONTROL OF UNDESIRED PLANT GROWTH” (Bayer Aktiengesellschaft, priority 2020, published 2024)
Read-outs that look alike come from different tables or passages of the source.

Legend:
Type in all cases: in vivo
[1] = system: Polygonum convolvulus (POLCO); assay: Post-emergence herbicidal action against POLCO
Procedure, shortened: (§1)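 Rates were 320 g/ha or below, applied as aqueous WP/EC spray with 0.5% additive (600 l/ha) onto one-leaf-stage plants. About 3 weeks later in the greenhouse, damage was scored visually against untreated plants on a 0–100% scale, where 100% means plants died.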

[2] = system: Abutilon theophrasti (ABUTH); assay: Post-emergence herbicidal action against ABUTH; details: visual rating about 3 weeks after treatment vs untreated controls (100% = plants have died, 0% = like control plants)
Procedure, shortened: as §1

Viola tricolor (VIOTR) = assay: Post-emergence herbicidal action against VIOTR
Procedure, shortened: as §1

[3] = system: Alopecurus myosuroides (ALOMY); assay: Post-emergence herbicidal action against ALOMY; details: visual rating about 3 weeks after treatment vs untreated controls (100% = plants have died, 0% = like control plants)
Procedure, shortened: as §1

[4] = system: Digitaria sanguinalis (DIGSA); assay: Post-emergence herbicidal action against DIGSA; details: visual rating about 3 weeks after treatment
Description: Seeds of monocotyledonous and dicotyledonous weeds and crop plants are placed in sandy loam in plastic or organic planting pots, covered with soil and cultivated in a greenhouse under controlled growth conditions. 2 to 3 weeks after sowing, the test plants are treated at the one-leaf stage. The compounds of the invention, formulated in the form of wettable powders (WP) or as emulsion concentrates (EC), are then sprayed onto the green parts of the plants as aqueous suspension or emulsion with addition of 0.5% additive at a water application rate of 600 l/ha (converted). After the test plants have been kept in the greenhouse under optimum growth conditions for about 3 weeks, the activity of the preparations is rated visually in comparison to untreated controls. For example, 100% activity=the plants have died, 0% activity=like control plants.
Tables B1 to B13 below show the effects of selected compounds of the general formula (I) according to Table 1 on various harmful plants and at an application rate corresponding to 320 g/ha or lower, which were obtained by the experimental procedure mentioned above. The appendices “a”, “b” and “c” give differentiation by dosage used with otherwise the same harmful plants tested.

Setaria viridis (SETVI) = assay: Post-emergence herbicidal action against SETVI
Procedure, shortened: as §1

Oryza sativa (ORYSA) = details: crop plant compatibility
Procedure, shortened: (§2)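 Foliar application at the one-leaf stage: WP/EC formulation, 0.5% additive, 600 l/ha water. Greenhouse-grown in sandy loam. Endpoint is visual % injury relative to untreated controls at about 3 weeks.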

[5] = system: Matricaria inodora (MATIN); assay: Post-emergence herbicidal action against MATIN
Procedure, shortened: as §1

Lolium rigidum (LOLRI) = assay: Post-emergence herbicidal action against LOLRI
Procedure, shortened: as §1

[6] = system: Echinochloa crus-galli (ECHCG); assay: Post-emergence herbicidal action against ECHCG
Procedure, shortened: as §1

[7] = system: Pharbitis purpurea (PHBPU); assay: Post-emergence herbicidal action against PHBPU
Procedure, shortened: as §1

[8] = system: Amaranthus retroflexus (AMARE); assay: Post-emergence herbicidal action against AMARE
Procedure, shortened: as §1

Avena fatua (AVEFA) = assay: Post-emergence herbicidal action against AVEFA; details: visual rating about 3 weeks after treatment
Procedure, shortened: as §1

[9] = system: Verconica persica (VERPE); assay: Post-emergence herbicidal action against VERPE
Procedure, shortened: as §1

Zea mays (ZEAMX) = details: 20 g/ha, ZEAMX, effect in comparison to untreated controls
Procedure, shortened: as §2

[10] = 20 g/ha, effect vs untreated controls
[11] = 80 g/ha, effect in comparison to untreated controls
[12] = 80 g/ha, visual rating about 3 weeks after treatment vs untreated controls (100% = plants have died, 0% = like control plants)
[13] = 320 g/ha, visual rating about 3 weeks after treatment

## COC(=O)C(C)OC(=O)C(C)Oc1nn(-c2ccccn2)c(-c2cncc(F)c2)c1Br (mixture of isomers) [Example I-176]
[1]; dosage 80 g/ha
  Post-emergence action against POLCO in %: 80%
[1]; dosage 320 g/ha
  Post-emergence action against POLCO in %: 80%
[2]; 320 g/ha
  Post-emergence action against ABUTH in %: 80%
Viola tricolor (VIOTR); 320 g/ha
  Post-emergence action against VIOTR in %: 80%
[3]; 320 g/ha
  Post-emergence action against ALOMY in %: 90%
[4]; 80 g/ha
  Post-emergence action against DIGSA in %: 80%
[4]; 320 g/ha
  Post-emergence action against DIGSA in %: 90%
Setaria viridis (SETVI); dosage 80 g/ha
  Post-emergence action against SETVI in %: 80%
Setaria viridis (SETVI); dosage 320 g/ha
  Post-emergence action against SETVI in %: 80%
Oryza sativa (ORYSA); [10]
  Post-emergence action against ORYSA in %: 0%
Oryza sativa (ORYSA); [11]
  Post-emergence action against ORYSA in %: 10%
[5]; dosage 320 g/ha
  Post-emergence action against MATIN in %: 80%
Lolium rigidum (LOLRI); dosage 80 g/ha
  Post-emergence action against LOLRI in %: 80%
Lolium rigidum (LOLRI); dosage 320 g/ha
  Post-emergence action against LOLRI in %: 80%
[6]; dosage 80 g/ha
  Post-emergence action against ECHCG in %: 80%
[6]; dosage 320 g/ha
  Post-emergence action against ECHCG in %: 90%

## CCOC(=O)[C@@H](C)Oc1nn(-c2ncccc2F)c(-c2cncc(F)c2)c1Br [Example I-227]
[1]; dosage 80 g/ha
  Post-emergence action against POLCO in %: 90%
[1]; dosage 320 g/ha
  Post-emergence action against POLCO in %: 90%
[2]; 80 g/ha
  Post-emergence action against ABUTH in %: 90%
[2]; 320 g/ha
  Post-emergence action against ABUTH in %: 90%
Viola tricolor (VIOTR); 80 g/ha
  Post-emergence action against VIOTR in %: 90%
Viola tricolor (VIOTR); 320 g/ha
  Post-emergence action against VIOTR in %: 90%
[3]; 80 g/ha
  Post-emergence action against ALOMY in %: 80%
[3]; 320 g/ha
  Post-emergence action against ALOMY in %: 90%
[4]; 80 g/ha
  Post-emergence action against DIGSA in %: 80%
[4]; 320 g/ha
  Post-emergence action against DIGSA in %: 90%
Setaria viridis (SETVI); dosage 80 g/ha
  Post-emergence action against SETVI in %: 90%
Setaria viridis (SETVI); dosage 320 g/ha
  Post-emergence action against SETVI in %: 90%
Oryza sativa (ORYSA); [10]
  Post-emergence action against ORYSA in %: 0%
[5]; dosage 80 g/ha
  Post-emergence action against MATIN in %: 80%
[5]; dosage 320 g/ha
  Post-emergence action against MATIN in %: 90%
[7]; dosage 80 g/ha
  Post-emergence action against PHBPU in %: 90%
[7]; dosage 320 g/ha
  Post-emergence action against PHBPU in %: 100%
[8]; [12]
  Post-emergence action against AMARE in %: 90%
[8]; [13]
  Post-emergence action against AMARE in %: 90%
Lolium rigidum (LOLRI); dosage 80 g/ha
  Post-emergence action against LOLRI in %: 80%
Lolium rigidum (LOLRI); dosage 320 g/ha
  Post-emergence action against LOLRI in %: 90%
Avena fatua (AVEFA); 80 g/ha
  Post-emergence action against AVEFA in %: 90%
Avena fatua (AVEFA); 320 g/ha
  Post-emergence action against AVEFA in %: 90%
[9]; 320 g/ha, VERPE
  Post-emergence action against VERPE in %: 90%
[9]; dosage 80 g/ha
  Post-emergence action against VERPE in %: 90%
[6]; dosage 80 g/ha
  Post-emergence action against ECHCG in %: 90%
[6]; dosage 320 g/ha
  Post-emergence action against ECHCG in %: 100%

## C[C@@H](Oc1nn(-c2ncccc2F)c(-c2cncc(F)c2)c1C1CC1)C(=O)O [Example I-166]
[1]; dosage 80 g/ha
  Post-emergence action against POLCO in %: 80%
[1]; dosage 320 g/ha
  Post-emergence action against POLCO in %: 80%
Viola tricolor (VIOTR); 80 g/ha
  Post-emergence action against VIOTR in %: 80%
Viola tricolor (VIOTR); 320 g/ha
  Post-emergence action against VIOTR in %: 80%
[3]; 80 g/ha
  Post-emergence action against ALOMY in %: 90%
[3]; 320 g/ha
  Post-emergence action against ALOMY in %: 90%
[4]; 80 g/ha
  Post-emergence action against DIGSA in %: 90%
[4]; 320 g/ha
  Post-emergence action against DIGSA in %: 90%
Setaria viridis (SETVI); dosage 80 g/ha
  Post-emergence action against SETVI in %: 90%
Setaria viridis (SETVI); dosage 320 g/ha
  Post-emergence action against SETVI in %: 90%
Oryza sativa (ORYSA); [10]
  Post-emergence action against ORYSA in %: 0%
Oryza sativa (ORYSA); [11]
  Post-emergence action against ORYSA in %: 20%
Zea mays (ZEAMX)
  Post-emergence action against ZEAMX in % (crop plant compatibility): 10%
[5]; dosage 80 g/ha
  Post-emergence action against MATIN in %: 80%
[5]; dosage 320 g/ha
  Post-emergence action against MATIN in %: 90%
[7]; dosage 80 g/ha
  Post-emergence action against PHBPU in %: 80%
[7]; dosage 320 g/ha
  Post-emergence action against PHBPU in %: 90%
Lolium rigidum (LOLRI); dosage 80 g/ha
  Post-emergence action against LOLRI in %: 80%
Lolium rigidum (LOLRI); dosage 320 g/ha
  Post-emergence action against LOLRI in %: 90%
Avena fatua (AVEFA); 80 g/ha
  Post-emergence action against AVEFA in %: 90%
Avena fatua (AVEFA); 320 g/ha
  Post-emergence action against AVEFA in %: 90%
[9]; 320 g/ha, VERPE
  Post-emergence action against VERPE in %: 80%
[9]; dosage 80 g/ha
  Post-emergence action against VERPE in %: 80%
[6]; dosage 80 g/ha
  Post-emergence action against ECHCG in %: 80%
[6]; dosage 320 g/ha
  Post-emergence action against ECHCG in %: 80%

## COC(=O)COc1nn(-c2ncccc2F)c(-c2ccc(F)nc2)c1Cl [Example I-304]
[2]; 80 g/ha
  Post-emergence action against ABUTH in %: 80%
[2]; 320 g/ha
  Post-emergence action against ABUTH in %: 90%
Viola tricolor (VIOTR); 80 g/ha
  Post-emergence action against VIOTR in %: 80%
Viola tricolor (VIOTR); 320 g/ha
  Post-emergence action against VIOTR in %: 90%
[3]; 320 g/ha
  Post-emergence action against ALOMY in %: 90%
[4]; 80 g/ha
  Post-emergence action against DIGSA in %: 90%
[4]; 320 g/ha
  Post-emergence action against DIGSA in %: 90%
Setaria viridis (SETVI); dosage 80 g/ha
  Post-emergence action against SETVI in %: 90%
Setaria viridis (SETVI); dosage 320 g/ha
  Post-emergence action against SETVI in %: 90%
Zea mays (ZEAMX)
  Post-emergence action against ZEAMX in % (crop plant compatibility): 20%
[5]; dosage 80 g/ha
  Post-emergence action against MATIN in %: 90%
[5]; dosage 320 g/ha
  Post-emergence action against MATIN in %: 90%
[7]; dosage 80 g/ha
  Post-emergence action against PHBPU in %: 80%
[7]; dosage 320 g/ha
  Post-emergence action against PHBPU in %: 90%
[8]; [12]
  Post-emergence action against AMARE in %: 80%
[8]; [13]
  Post-emergence action against AMARE in %: 90%
Lolium rigidum (LOLRI); dosage 320 g/ha
  Post-emergence action against LOLRI in %: 90%
Avena fatua (AVEFA); 320 g/ha
  Post-emergence action against AVEFA in %: 90%
[9]; 320 g/ha, VERPE
  Post-emergence action against VERPE in %: 90%
[9]; dosage 80 g/ha
  Post-emergence action against VERPE in %: 80%
[6]; dosage 80 g/ha
  Post-emergence action against ECHCG in %: 80%
[6]; dosage 320 g/ha
  Post-emergence action against ECHCG in %: 90%
